In ChEMBL document CHEMBL3885881, “DrugMatrix”:

Species on record: Rattus norvegicus
Experiment: DrugMatrix - Regimen: Daily Repeat
Assay type: toxicity, organism-based, Sprague-Dawley
Design: regimen Daily Repeat, gender Male, age 6-8 weeks
Details: in vivo, po, route oral GAVAGE, […]; for ABSOLUTE BASOPHIL / ABSOLUTE EOSINOPHIL / ABSOLUTE LYMPHOCYTE / ABSOLUTE MONOCYTE / ABSOLUTE SEGMENTED NEUTROPHIL / BASOPHIL / EOSINOPHIL / ERYTHROCYTE COUNT / HEMATOCRIT / HEMOGLOBIN / LEUKOCYTE COUNT / LYMPHOCYTE / MEAN CORPUSCULAR HEMOGLOBIN / MEAN CORPUSCULAR HEMOGLOBIN CONCENTRATION / MEAN CORPUSCULAR VOLUME / MONOCYTE / NEUTROPHIL / NUCLEATED RED BLOOD CELLS / PLATELET COUNT: tissue Blood; for ALANINE AMINOTRANSFERASE / ALBUMIN / ALKALINE PHOSPHATASE / ASPARTATE AMINOTRANSFERASE / BLOOD UREA NITROGEN / CARBON DIOXIDE / CHLORIDE / CHOLESTEROL / CREATINE PHOSPHOKINASE / CREATININE / GLUCOSE / LACTATE DEHYDROGENASE / LIPASE / PHOSPHORUS / POTASSIUM / SODIUM / TOTAL BILIRUBIN / TOTAL PROTEIN / URIC ACID: tissue Plasma
[1] = 0 mg/kg, 72 h, dose level Control, time 3 day
[2] = 0 mg/kg, 120 h, dose level Control, time 5 day
[3] = 3 mg/kg, 72 h, dose level Low, time 3 day

SMILES: CS(=O)(=O)c1ccc(C2=C(c3ccccc3)C(=O)OC2)cc1 [ROFECOXIB]
- ABSOLUTE BASOPHIL [1]: 0 CELLS/uL
- ABSOLUTE EOSINOPHIL [1]: 0 CELLS/uL
- ABSOLUTE LYMPHOCYTE [1]: 6275.67 CELLS/uL
- ABSOLUTE MONOCYTE [1]: 40.67 CELLS/uL
- ABSOLUTE SEGMENTED NEUTROPHIL [1]: 633.67 CELLS/uL
- BASOPHIL [1]: 0%
- EOSINOPHIL [1]: 0%
- ERYTHROCYTE COUNT [1]: 5.2 x10E6/uL
- HEMATOCRIT [1]: 32.78%
- HEMOGLOBIN [1]: 12.98 G/DL
- LEUKOCYTE COUNT [1]: 6.95 x10E3/uL
- LYMPHOCYTE [1]: 90.17%
- MEAN CORPUSCULAR HEMOGLOBIN [1]: 24.97 pg
- MEAN CORPUSCULAR HEMOGLOBIN CONCENTRATION [1]: 39.62 G/DL
- MEAN CORPUSCULAR VOLUME [1]: 63.03 fL
- MONOCYTE [1]: 0.67%
- NEUTROPHIL [1]: 9.17%
- NUCLEATED RED BLOOD CELLS [1]: 0 /100WBC
- PLATELET COUNT [1]: 1082.83 x10E3/uL
- ALANINE AMINOTRANSFERASE [1]: 69.67 u/L
- ALBUMIN [1]: 4.15 G/DL
- ALKALINE PHOSPHATASE [1]: 430.5 u/L
- ASPARTATE AMINOTRANSFERASE [1]: 90.83 u/L
- BLOOD UREA NITROGEN [1]: 13 mg/dL
- CARBON DIOXIDE [1]: 33 mmol/L
- CHLORIDE [1]: 99.17 MEQ/L
- CHOLESTEROL [1]: 70.5 mg/dL
- CREATINE PHOSPHOKINASE [1]: 253.33 u/L
- CREATININE [1]: 0.13 mg/dL
- GLUCOSE [1]: 157.17 mg/dL
- LACTATE DEHYDROGENASE [1]: 85 u/L
- LIPASE [1]: 10 u/L
- PHOSPHORUS [1]: 10.2 mg/dL
- POTASSIUM [1]: 5.78 MEQ/L
- SODIUM [1]: 144.12 MEQ/L
- TOTAL BILIRUBIN [1]: 0.2 mg/dL
- TOTAL PROTEIN [1]: 5.8 G/DL
- URIC ACID [1]: 0.8 mg/dL
- ABSOLUTE BASOPHIL [2]: 0 CELLS/uL
- ABSOLUTE EOSINOPHIL [2]: 0 CELLS/uL
- ABSOLUTE LYMPHOCYTE [2]: 10431 CELLS/uL
- ABSOLUTE MONOCYTE [2]: 90.5 CELLS/uL
- ABSOLUTE SEGMENTED NEUTROPHIL [2]: 1111.83 CELLS/uL
- BASOPHIL [2]: 0%
- EOSINOPHIL [2]: 0%
- ERYTHROCYTE COUNT [2]: 5.51 x10E6/uL
- HEMATOCRIT [2]: 34.67%
- HEMOGLOBIN [2]: 13.5 G/DL
- LEUKOCYTE COUNT [2]: 11.63 x10E3/uL
- LYMPHOCYTE [2]: 89.67%
- MEAN CORPUSCULAR HEMOGLOBIN [2]: 24.5 pg
- MEAN CORPUSCULAR HEMOGLOBIN CONCENTRATION [2]: 38.95 G/DL
- MEAN CORPUSCULAR VOLUME [2]: 62.87 fL
- MONOCYTE [2]: 0.67%
- NEUTROPHIL [2]: 9.67%
- NUCLEATED RED BLOOD CELLS [2]: 0 /100WBC
- PLATELET COUNT [2]: 1052.67 x10E3/uL
- ALANINE AMINOTRANSFERASE [2]: 54.67 u/L
- ALBUMIN [2]: 4.15 G/DL
- ALKALINE PHOSPHATASE [2]: 359.83 u/L
- ASPARTATE AMINOTRANSFERASE [2]: 83 u/L
- BLOOD UREA NITROGEN [2]: 13.5 mg/dL
- CARBON DIOXIDE [2]: 27.17 mmol/L
- CHLORIDE [2]: 98.5 MEQ/L
- CHOLESTEROL [2]: 66.83 mg/dL
- CREATINE PHOSPHOKINASE [2]: 256.17 u/L
- CREATININE [2]: 0.19 mg/dL
- GLUCOSE [2]: 171.33 mg/dL
- LACTATE DEHYDROGENASE [2]: 91.5 u/L
- LIPASE [2]: 10.5 u/L
- PHOSPHORUS [2]: 8.72 mg/dL
- POTASSIUM [2]: 5.34 MEQ/L
- SODIUM [2]: 142.53 MEQ/L
- TOTAL BILIRUBIN [2]: 0.2 mg/dL
- TOTAL PROTEIN [2]: 6.05 G/DL
- URIC ACID [2]: 0.6 mg/dL
- ABSOLUTE BASOPHIL [3]: 0 CELLS/uL
- ABSOLUTE EOSINOPHIL [3]: 85.33 CELLS/uL
- ABSOLUTE LYMPHOCYTE [3]: 8896 CELLS/uL
- ABSOLUTE MONOCYTE [3]: 157.33 CELLS/uL
- ABSOLUTE SEGMENTED NEUTROPHIL [3]: 594.67 CELLS/uL
- BASOPHIL [3]: 0%
- EOSINOPHIL [3]: 0.67%
- ERYTHROCYTE COUNT [3]: 4.87 x10E6/uL
- HEMATOCRIT [3]: 31.33%
- HEMOGLOBIN [3]: 12.37 G/DL
- LEUKOCYTE COUNT [3]: 9.73 x10E3/uL
- LYMPHOCYTE [3]: 92%
- MEAN CORPUSCULAR HEMOGLOBIN [3]: 25.37 pg
- MEAN CORPUSCULAR HEMOGLOBIN CONCENTRATION [3]: 39.47 G/DL
- MEAN CORPUSCULAR VOLUME [3]: 64.27 fL
- MONOCYTE [3]: 1.33%
- NEUTROPHIL [3]: 6%
- NUCLEATED RED BLOOD CELLS [3]: 0 /100WBC
- PLATELET COUNT [3]: 1073 x10E3/uL
- ALANINE AMINOTRANSFERASE [3]: 72.67 u/L
- ALBUMIN [3]: 3.97 G/DL
- ALKALINE PHOSPHATASE [3]: 379.67 u/L
- ASPARTATE AMINOTRANSFERASE [3]: 91.33 u/L
- BLOOD UREA NITROGEN [3]: 11.33 mg/dL
- CARBON DIOXIDE [3]: 30.33 mmol/L
- CHLORIDE [3]: 103.33 MEQ/L
- CHOLESTEROL [3]: 80.33 mg/dL
- CREATINE PHOSPHOKINASE [3]: 195.67 u/L
- CREATININE [3]: 0.12 mg/dL
- GLUCOSE [3]: 156 mg/dL
- LACTATE DEHYDROGENASE [3]: 80 u/L
- LIPASE [3]: 9.67 u/L
- PHOSPHORUS [3]: 11.1 mg/dL
- POTASSIUM [3]: 6.21 MEQ/L
- SODIUM [3]: 149.03 MEQ/L
- TOTAL BILIRUBIN [3]: 0.1 mg/dL
- TOTAL PROTEIN [3]: 5.43 G/DL
- URIC ACID [3]: 0.7 mg/dL
